Measured values as given in patent publication US9630963B2, “Quinolone derivatives as fibroblast growth factor inhibitors” (Principia Biopharma, Inc., priority 2013, dated 2017).

How the values were obtained:
SNU-16 cells = assay: Inhibition of FGFR2-dependent cell growth (Cell-titer Glo); format: cell-based; conditions: Homo sapiens, SNU16 cells, 72 hrs incubation, cell viability by Cell-titer Glo
Method: The cell-based effects of FGFR inhibitors were determined by measuring inhibition of FGFR-dependent cell line growth. […] Percent inhibition of cell growth was calculated as a percentage of untreated cell viability. The percent inhibition was plotted as a function of log compound concentration. The IC50 was then calculated for each compound using Prism software from GraphPad.

human recombinant FGFR1 = human recombinant FGFR1 (Homo sapiens, UniProt P11362); assay: FGFR family enzymatic activity assay (Caliper-based kinase assay), FGFR1; format: biochemical; conditions: FGFR1 0.5 nM, ATP 100 μM, peptide substrate 1 μM, room temperature 3 h
human recombinant FGFR1, sequence (P11362 22-822): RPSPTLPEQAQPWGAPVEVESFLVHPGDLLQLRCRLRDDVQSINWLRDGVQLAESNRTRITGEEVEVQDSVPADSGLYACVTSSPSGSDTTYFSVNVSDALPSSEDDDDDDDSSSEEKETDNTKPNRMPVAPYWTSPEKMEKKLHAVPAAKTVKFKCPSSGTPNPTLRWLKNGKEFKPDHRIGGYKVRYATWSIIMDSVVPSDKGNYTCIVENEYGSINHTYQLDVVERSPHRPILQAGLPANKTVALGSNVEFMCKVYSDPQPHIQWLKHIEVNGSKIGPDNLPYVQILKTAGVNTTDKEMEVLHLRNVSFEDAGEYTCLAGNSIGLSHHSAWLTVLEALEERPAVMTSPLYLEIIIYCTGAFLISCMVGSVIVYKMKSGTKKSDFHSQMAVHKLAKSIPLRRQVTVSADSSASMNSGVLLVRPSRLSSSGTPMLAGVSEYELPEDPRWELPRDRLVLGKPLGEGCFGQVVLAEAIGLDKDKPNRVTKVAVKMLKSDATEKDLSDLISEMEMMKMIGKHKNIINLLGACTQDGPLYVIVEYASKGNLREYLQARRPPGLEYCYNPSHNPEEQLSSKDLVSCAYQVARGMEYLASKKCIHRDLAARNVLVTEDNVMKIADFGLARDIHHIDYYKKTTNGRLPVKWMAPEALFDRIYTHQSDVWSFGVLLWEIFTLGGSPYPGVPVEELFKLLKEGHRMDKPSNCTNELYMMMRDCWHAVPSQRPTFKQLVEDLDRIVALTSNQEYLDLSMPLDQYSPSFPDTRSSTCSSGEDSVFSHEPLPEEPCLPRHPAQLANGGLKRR
Excerpt: A Caliper-based kinase assay (Caliper Life Sciences, Hopkinton, Mass.) was used to measure inhibition of FGFR family (FGFR1, FGFR2, FGFR3, FGFR4) kinase activity of a compound of Formula (I′) or (I). […] This value is presented as the IC50.

| Compound | IC50 (SNU-16 cells) | IC50 (human recombinant FGFR1) |
| --- | --- | --- |
| C=CC(=O)Nc1nc(CCn2c(=O)c(-c3c(Cl)c(OC)cc(OC)c3Cl)cc3cnc(NC)nc32)cs1 [Example 41, N-(4-(2-(6-(2,6-dichloro-3,5-dimethoxyphenyl)-2-(methylamino)-7-oxopyrido[2,3-d]pyrimidin-8(7H)-yl)ethyl)thiazol-2-yl)acrylamide] | > 330 nM | 5 nM |
| CNc1ncc2cc(-c3cc(OC)cc(OC)c3Cl)c(=O)n(CCc3ccc(NS(=O)(=O)C=C(C)C)cc3)c2n1 [Example 45, N-(4-(2-(6-(2-chloro-3,5-dimethoxyphenyl)-2-(methylamino)-7-oxopyrido[2,3-d]pyrimidin-8(7H)-yl)ethyl)phenyl)-2-methylprop-1-ene-1-sulfonamide] | 48 nM | 4 nM |
| C=CC(=O)Nc1cnc(CCn2c(=O)c(-c3cc(OC)cc(OC)c3Cl)cc3cnc(NCCN4CCOCC4)nc32)cn1 [Example 47, N-(5-(2-(6-(2-chloro-3,5-dimethoxyphenyl)-2-((2-morpholinoethyl)amino)-7-oxopyrido[2,3-d]pyrimidin-8(7H)-yl)ethyl)pyrazin-2-yl)acrylamide] | 82.4 nM | 3 nM |
| C=CC(=O)Nc1ccc(CCn2c(=O)c(-c3cc(OC)cc(OC)c3Cl)cc3cnc(NCCn4ccnc4)nc32)cc1 [Example 50, N-(4-(2-(2-((2-(1H-imidazol-1-yl)ethyl)amino)-6-(2-chloro-3,5-dimethoxyphenyl)-7-oxopyrido[2,3-d]pyrimidin-8(7H)-yl)ethyl)phenyl)acrylamide] | 11.7 nM | 7.4 nM |
| C=CC(=O)Nc1cccc(CCn2c(=O)c(-c3cc(OC)cc(OC)c3F)cc3cnc(NCCN4CCOCC4)nc32)c1 [Example 52, N-(3-(2-(6-(2-fluoro-3,5-dimethoxyphenyl)-2-(2-morpholin-4-ylethyllamino)-7-oxopyrido[2,3-d]pyrimidin-8(7H)-yl)ethyl)phenyl)acrylamide] | 15 nM | 5.4 nM |
| C=CC(=O)Nc1ccc(CCn2c(=O)c(-c3cc(OC)cc(OC)c3F)cc3cnc(NCCN4CCOCC4)nc32)cc1F [Example 53, N-(2-fluoro-4-(2-(6-(2-fluoro-3,5-dimethoxyphenyl)-2-((2-morpholinoethyl)amino)-7-oxopyrido[2,3-d]pyrimidin-8(7H)-yl)ethyl)phenyl)acrylamide] | 71.3 nM | 28.9 nM |
| C=CC(=O)Nc1ccc(CCn2c(=O)c(-c3cc(OC)cc(OC)c3Cl)cc3cnc(NCCN4CCOCC4)nc32)cc1F [Example 54, N-(4-(2-(6-(2-chloro-3,5-dimethoxyphenyl)-2-((2-morpholinoethyl)amino)-7-oxopyrido[2,3-d]pyrimidin-8(7H)-yl)ethyl)-2-fluorophenyl)acrylamide] | 33.3 nM | 11.7 nM |
| C=CC(=O)Nc1ccc(CCn2c(=O)c(-c3cc(OC)cc(OC)c3Cl)cc3cnc(NCCN4CCS(=O)(=O)CC4)nc32)cc1 [Example 74, N-(4-(2-(6-(2-chloro-3,5-dimethoxyphenyl)-2-((2-(1,1-dioxidothiomorpholino)-ethyl)amino)-7-oxopyrido[2,3-d]pyrimidin-8(7H)-yl)ethyl)phenyl)acrylamide] | 13.3 nM | 2.2 nM |
| C=CC(=O)Nc1ccc(CCn2c(=O)c(-c3cc(OC)cc(OC)c3Cl)cc3cnc(NCCN4[C@H](C)CNC[C@@H]4C)nc32)cc1 [Example 82, N-(4-(2-(6-(2-chloro-3,5-dimethoxyphenyl)-2-((2-((2R,6S)-2,6-dimethylpiperazin-1-yl)ethyl)amino)-7-oxopyrido[2,3-d]pyrimidin-8(7H)-yl)ethyl)phenyl)acrylamide] | 70.4 nM | 0.5 nM |
| C=CC(=O)Nc1ccc(CCn2c(=O)c(-c3c(Cl)c(OC)cc(OC)c3Cl)cc3cnc(NCC(C)(C)O)nc32)nc1 [Example 84, N-(6-(2-(6-(2,6-dichloro-3,5-dimethoxyphenyl)-2-((2-hydroxy-2-methylpropyl)-amino)-7-oxopyrido[2,3-d]pyrimidin-8(7H)-yl)ethyl)pyridin-3-yl)acrylamide] | 14.5 nM | 0.7 nM |
| C=CC(=O)Nc1ccc(CCn2c(=O)c(-c3c(Cl)c(OC)cc(OC)c3Cl)cc3cnc(NC(CO)CO)nc32)nc1 [Example 87, N-(6-(2-(6-(2,6-dichloro-3,5-dimethoxyphenyl)-2-((1,3-dihydroxypropan-2-yl)amino)-7-oxopyrido[2,3-d]pyrimidin-8(7H)-yl)ethyl)pyridin-3-yl)acrylamide] | 169 nM | 1.2 nM |

The remaining lines, values ahead:

| IC50 (SNU-16 cells) | IC50 (human recombinant FGFR1) | Compound |
| --- | --- | --- |
| 4.3 nM | 2.2 nM | C=CC(=O)Nc1ccc(CCn2c(=O)c(-c3cc(OC)cc(OC)c3Cl)cc3cnc(NCCN4CCOCC4)nc32)c(F)c1 [Example 55, N-(4-(2-(6-(2-chloro-3,5-dimethoxyphenyl)-2-((2-morpholinoethyl)amino)-7-oxopyrido[2,3-d]pyrimidin-8(7H)-yl)ethyl)-3-fluorophenyl)acrylamide] |
| 5 nM | 3.7 nM | C=CC(=O)Nc1ccc(CCn2c(=O)c(-c3cc(OC)cc(OC)c3Cl)cc3cnc(NCCN4CCOCC4)nc32)cc1Cl [Example 56, N-(4-(2-(6-(2-chloro-3,5-dimethoxyphenyl)-2-((2-morpholinoethyl)amino)-7-oxopyrido[2,3-d]pyrimidin-8(7H)-yl)ethyl)-2-chlorophenyl)acrylamide] |
| 0.4 nM | 0.4 nM | C=CC(=O)Nc1ccc(CCn2c(=O)c(-c3cc(OC)cc(OC)c3Cl)cc3cnc(NCCN4CCN(C(C)C)CC4)nc32)cc1 [Example 57, N-(4-(2-(6-(2-chloro-3,5-dimethoxyphenyl)-2-((4-isopropylpiperazin-1-yl-ethyl)amino)-7-oxopyrido[2,3-d]pyrimidin-8(7H)-yl)ethyl)phenyl)acylamide] |
| 0.8 nM | 1.3 nM | C=CC(=O)Nc1ccc(CCn2c(=O)c(-c3cc(OC)cc(OC)c3Cl)cc3cnc(NCCN4C[C@@H](C)O[C@@H](C)C4)nc32)cc1 [Example 58, N-(4-(2-(6-(2-chloro-3,5-dimethoxyphenyl)-2-((2-((2R,6S)-2,6-dimethyl-morpholino)ethyl)-amino)-7-oxopyrido[2,3-d]pyrimidin-8(7H)-yl)ethyl)phenyl)acrylamide] |
| 0.6 nM | 0.5 nM | C#CCNc1ncc2cc(-c3cc(OC)cc(OC)c3Cl)c(=O)n(CCc3ccc(NC(=O)C=C)cn3)c2n1 [Example 59, N-(6-(2-(6-(2-chloro-3,5-dimethoxyphenyl)-7-oxo-2-(prop-2-yn-1-ylamino)pyrido-[2,3-d]pyrimidin-8(7H)-yl)ethyl)pyridin-3-yl)acrylamide] |
| 9.7 nM | 2.3 nM | C=CC(=O)Nc1ccc(CCn2c(=O)c(-c3cc(OC)cc(OC)c3Cl)cc3cnc(NC(C)(C)CN4CCOCC4)nc32)cc1 [Example 67, N-(4-(2-(6-(2-chloro-3,5-dimethoxyphenyl)-2-((2-methyl-1-morpholinopropan-2-yl)amino)-7-oxopyrido[2,3-d]pyrimidin-8(7H)-yl)ethyl)phenyl)acrylamide] |
| 7 nM | 2.3 nM | C=CC(=O)Nc1ccc(CCn2c(=O)c(-c3c(Cl)c(OC)cc(OC)c3Cl)cc3cnc(NC(C)(C)CO)nc32)cc1 [Example 77, N-(4-(2-(6-(2,6-dichloro-3,5-dimethoxyphenyl)-2-((1-hydroxy-2-methylpropan-2-yl)amino)-7-oxopyrido[2,3-d]pyrimidin-8(7H)-yl)ethyl)phenyl)acrylamide] |
| 3 nM | 0.9 nM | C=CC(=O)Nc1ccc(CCn2c(=O)c(-c3cc(OC)cc(OC)c3Cl)cc3cnc(NCCN4CCN(C5COC5)CC4)nc32)cc1 [Example 78, N-(4-(2-(6-(2-chloro-3,5-dimethoxyphenyl)-2-((2-(4-(oxetan-3-yl)piperazin-1-yl)ethyl)amino)-7-oxopyrido[2,3-d]pyrimidin-8(7H)-yl)ethyl)phenyl)acrylamide] |
| 3.4 nM | 0.2 nM | C=CC(=O)Nc1ccc(CCn2c(=O)c(-c3c(Cl)c(OC)cc(OC)c3Cl)cc3cnc(NCC)nc32)nc1 [Example 79, N-(6-(2-(6-(2,6-dichloro-3,5-dimethoxyphenyl)-2-(ethylamino)-7-oxopyrido[2,3-d]pyrimidin-8(7H)-yl)ethyl)pyridin-3-yl)acrylamide] |
| 9.6 nM | 0.5 nM | C=CC(=O)Nc1ccc(CCn2c(=O)c(-c3c(Cl)c(OC)cc(OC)c3Cl)cc3cnc(NC(C)C)nc32)nc1 [Example 80, N-(6-(2-(6-(2,6-dichloro-3,5-dimethoxyphenyl)-2-(isopropylamino)-7-oxopyrido[2,3-d]pyrimidin-8(7H)-yl)ethyl)pyridin-3-yl)acrylamide] |
| 4.1 nM | 0.3 nM | C=CC(=O)Nc1ccc(CCn2c(=O)c(-c3c(Cl)c(OC)cc(OC)c3Cl)cc3cnc(NC4CCOCC4)nc32)nc1 [Example 81, N-(6-(2-(6-(2,6-dichloro-3,5-dimethoxyphenyl)-7-oxo-2-((tetrahydro-2H-pyran-4-yl)amino)-pyrido[2,3-d]pyrimidin-8(7H)-yl)ethyl)pyridin-3-yl)acrylamide] |
| 4.2 nM | 0.6 nM | C=CC(=O)Nc1ccc(CCn2c(=O)c(-c3cc(OC)cc(OC)c3Cl)cc3cnc(NCC(C)(C)CO)nc32)cc1 [Example 83, N-(4-(2-(6-(2-chloro-3,5-dimethoxyphenyl)-2-((3-hydroxy-2,2-dimethyl-propyl)amino)-7-oxopyrido[2,3-d]pyrimidin-8(7H)-yl)ethyl)phenyl)acrylamide] |
| 11.4 nM | 0.6 nM | C=CC(=O)Nc1ccc(CCn2c(=O)c(-c3c(Cl)c(OC)cc(OC)c3Cl)cc3cnc(NCCO)nc32)nc1 [Example 86, N-(6-(2-(6-(2,6-dichloro-3,5-dimethoxyphenyl)-2-((2-hydroxyethyl)amino)-7-oxopyrido[2,3-d]pyrimidin-8(7H)-yl)ethyl)pyridin-3-yl)acrylamide] |
